The values that follow come from publication PMC11053168, “Agonist-selective activation of individual G-proteins by muscarinic receptors” (Scientific Reports, 2024).

This assay addresses T1, M2 receptor (Homo sapiens, UniProt P08172).
T1 sequence (P08172 1-466): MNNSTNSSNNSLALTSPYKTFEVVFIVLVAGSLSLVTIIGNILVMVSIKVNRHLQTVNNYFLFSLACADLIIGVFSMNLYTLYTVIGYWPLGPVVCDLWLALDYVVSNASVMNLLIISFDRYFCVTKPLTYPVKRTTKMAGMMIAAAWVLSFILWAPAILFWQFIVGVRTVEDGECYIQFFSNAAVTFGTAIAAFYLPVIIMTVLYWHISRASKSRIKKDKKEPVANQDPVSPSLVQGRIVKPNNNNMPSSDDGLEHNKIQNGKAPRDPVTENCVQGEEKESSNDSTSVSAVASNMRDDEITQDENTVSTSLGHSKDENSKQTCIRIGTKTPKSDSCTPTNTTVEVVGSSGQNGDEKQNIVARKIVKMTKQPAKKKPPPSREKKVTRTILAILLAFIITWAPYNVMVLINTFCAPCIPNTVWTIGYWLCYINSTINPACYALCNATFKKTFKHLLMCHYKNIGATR
Kind of assay: BRET real-time monitoring of G-protein activation via M2 in HEK293T/17 cells. The class given is cell-based. On the set-up: expressed in transfected cells; host or cells: HEK293T/17 cells, transient transfection. The settings on record: for Activation of Gαi/o and Gα15 types: saturating concentration (100 μM; 1 mM for JB-12-2, JB-13-1). The protocol: HE/K293T17 cells were obtained from The Global Bioresource Center ATCC (Manassas, VA, USA). Cells were grown in 100 mm petri dishes in Dulbecco’s modified Eagle’s medium (DMEM) supplemented with 10% fetal bovine serum (FBS), MEM non-essential amino acids, 1 mM sodium pyruvate, and antibiotics (100 units/ml penicillin and 100 μg/ml streptomycin) at 37 °C in a humidified incubator containing 5% CO2[41]. Transfection was performed according to Masuho et al.[41]. Culture dishes (3.5 cm) were coated by incubation for 10 min at 37 °C with 1 ml of Matrigel solution [approximately 10 μg/ml of growth factor-reduced Matrigel (BD biosciences; LOT: 2278001) in culture medium]. For transfections, cells were seeded in the 3.5 cm dishes containing the Matrigel solution at a density of 1.7 × 10^6 cells/dish. Four hours later, the cells were transfected with the appropriate expression constructs (total of 5 μg DNA per dish) with the reagents PLUS (5 μl/dish) and Lipofectamine LTX (Thermo Fisher Scientific; LOT: 2640614) (6 μl/dish). The cells were transfected with the Venus 156-239-Gβ1 (0.21 μg), Venus 1–155-Gγ2 (0.21 μg), and masGRK3ct-Nluc (0.21 μg) constructs in addition to the different amounts of constructs for the M2 receptor and Gα of interest. Gα14 subunit was co-transfected with Ric-8A chaperone (0.21 μg). Cells were cotransfected with a pcDNA3.1 construct encoding the catalytic subunit of pertussis toxin (PTX-S1) (0.21 μg) and constructs encoding Gα15, Gα14, Gα11, Gαq to ensure that the small BRET signals were not contaminated by the possible recruitment of endogenous Gαi/o proteins. The empty vector pcDNA3.1 was used to normalize the amount of DNA in each transfection.
To examine the activation of G-protein signalling in live cells, agonist-dependent cellular measurements of BRET between Venus-Gβ1γ2 and masGRK3ct-Nluc were performed as described by Masuho et al.[41]. […]. Cells were harvested by centrifugation at 500×g for 5 min and were resuspended in BRET buffer. About 50,000 to 100,000 cells per well were distributed in 96-well flat-bottomed white microplates (Greiner Bio-One) in a volume of 25 µl. 25 µl of 2× luciferase substrate: Nano-Glo™ luciferase assay substrate (Promega; LOT: 0000527335) dissolved in 250 volumes of BRET buffer was added. BRET measurements were made with a microplate reader (POLARstar Omega, BMG Labtech) equipped with two emission photomultiplier tubes, which enabled the detection of two emissions simultaneously with the highest possible resolution of 20 ms per data point. All measurements were performed at room temperature. The BRET signal was determined by calculating the ratio of the light emitted by Venus-Gβ1γ2 (535 nm with a 30 nm band path width) to the light emitted by masGRK3ct-Nluc (475 nm with a 30 nm band path width). The average baseline value (basal BRET ratio) recorded before stimulation of cells with an agonist was subtracted from the experimental BRET signal values to obtain the ΔBRET ratio.
The ΔBRET ratio from real-time monitoring of G-protein activation was fitted using monophasic association according to Eq. 9.9 Y=Beq×(1-exp-Kobs×x where y is the ΔBRET ratio of the light emitted by Venus-Gβ1γ2 (535/30) to the light emitted by masGRK3ct-Nluc (475/30). Beq is Y-value at the equilibrium expressing the maximal amplitude of ΔBRET ratio, x is time and Kobs is the observed rate of Gα subunit activation.

SMILES strings stand for the structures.

Consider `C[N+](C)(C)CCOC(N)=O` [CBC, carbachol, reference compound], for which the “Activation of Gαi/o and Gα15 types” value is “activated all tested Gαi/o types and promiscuous Gα15”. The “Maximal amplitude at Gi1 as % of GoA” value (CBC 100 μM) is given as ~ 25%.
For the molecule `c1csc(C[N+]23CCC(CC2)CC3)c1` [JB-8A], the “Activation of Gαi/o and Gα15 types” value is reported as “did not detect”.
`C[N+]1(Cc2cccs2)CCOCC1` [JB-12-2]: where the note is “saturating concentration (JR-6 100 μM, JB-12-2 1 mM)”, the “Activation of GoA and GoB, % of CBC magnitude” value is “approximately 12%”.
For `COC(=O)C1=CCCN(Cc2cccs2)C1` [JB-13-1], the “Activation of Gαi/o and Gα15 types” value is given as “activated only GαoA”.
Still for that read-out and setting: the result for `C[N+]1(Cc2ccc(Cl)s2)CC=CCC1` (stereo not drawn) [PN-152, 1-[(5-chlorothiophen-2-yl)methyl]-1-methyl-1,2,3,6-tetrahydropyridin-1-ium] reads “did not detect”.
